In assay [1] the target is Falcipain 2 (Plasmodium falciparum, UniProt Q8I6U4). In words: Cysteine protease inhibition, progress curve method, falcipain. It counts as biochemical. The note with it: 10 uM Cbz-Leu-Arg-AMC, 100 mM Na acetate pH 5.5, 5 mM cysteine. Here is the method: Standard assay conditions for the determination of kinetic constants used 10 uM fluorogenic peptide substrate, Cbz-Phe-Arg-AMC for the cysteine proteases from Leishmania spp and Schistosoma Mansoni, Cbz-Leu-Arg-AMC for the cysteine proteases from Plasmodium falciparum and Trypanosoma brucei rhodesiensi, and Ac-Lys-Glu-Lys-Leu-Arg-AMC (4 uM final substrate concentration) for the cysteine protease from Trypoanosoma cruzi, and were determined in 100 mM Na acetate at pH 5.5 containing 5 mM cysteine. Stock substrate solutions were prepared at concentrations of […] in DMSO with 10 uM (4 uM for Ac-Lys-Glu-Lys-Leu-Arg-AMC) final substrate concentration in the assays. The final DMSO concentration was 2% and the final volume was 100 uL. All assays were conducted at ambient temperature. Product progress curves were generated over 20 to 30 minutes following formation of AMC product.
Potential inhibitors were evaluated using the progress curve method. Assays were carried out in the presence of variable concentrations of test compound. Reactions were initiated by addition of enzyme to buffered solutions of inhibitor and substrate. Data analysis was conducted according to one of two procedures depending on the appearance of the progress curves in the presence of inhibitors. For those compounds whose progress curves were linear, apparent inhibition constants (Ki,app) were calculated according to equation 1 (Brandt et al., Biochemitsry, 1989, 28, 140):
v=VmA/[Ka(1+I/Ki,app)+A] (1)
Where v is the velocity of the reaction with maximal velocity Vm, A is the concentration of substrate with Michaelis constant of Ka, and I is the concentration of inhibitor.
[AMC]=vsst+(v0−vss)[1−exp (−kobst)]/kobs (2)
Where [AMC] is the concentration of product formed over time t, v0 is the initial reaction velocity and vss is the final steady state rate. Values for kobs were then analyzed as a linear function of inhibitor concentration to generate an apparent second order rate constant (kobs/inhibitor concentration or kobs/[I]) describing the time-dependent inhibition. A complete discussion of this kinetic treatment has been fully described (Morrison et al., Adv. Enzymol. Relat. Areas Mol. Biol., 1988, 61, 201).
Exemplary inhibition data for the compounds used in the present method collected in accordance with the above-described procedure are listed in Table I.

Assay [2] concerns the target Cruzain (Trypanosoma cruzi, UniProt P25779). In words: Cysteine protease inhibition, progress curve method, cruzain. To be noted: 4 uM Ac-Lys-Glu-Lys-Leu-Arg-AMC, 100 mM Na acetate pH 5.5, 5 mM cysteine. The assay is classed as biochemical. The method in brief: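 Kinetic constants from AMC-release progress curves over 20–30 min at ambient temperature in 100 mM Na acetate pH 5.5, 5 mM cysteine, 2% DMSO; enzyme added last to inhibitor plus substrate. Substrates: 10 uM Cbz-Phe-Arg-AMC (Leishmania, Schistosoma), 10 uM Cbz-Leu-Arg-AMC (falcipain), 4 uM Ac-Lys-Glu-Lys-Leu-Arg-AMC (cruzain). Ki,app from linear curves; time-dependent inhibition as kobs/[I].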

In assay [3] the target is Rhodazain (Trypanosoma brucei rhodesiense, UniProt Q95PM0). In words: Cysteine protease inhibition, progress curve method, rhodazain. It counts as biochemical, Trypanosoma brucei rhodesiensi. To be noted: 10 uM Cbz-Leu-Arg-AMC, 100 mM Na acetate pH 5.5, 5 mM cysteine.

Like-named read-outs stand apart in the source and are kept apart here.

Rhodazain, sequence (Q95PM0 entry or part of it): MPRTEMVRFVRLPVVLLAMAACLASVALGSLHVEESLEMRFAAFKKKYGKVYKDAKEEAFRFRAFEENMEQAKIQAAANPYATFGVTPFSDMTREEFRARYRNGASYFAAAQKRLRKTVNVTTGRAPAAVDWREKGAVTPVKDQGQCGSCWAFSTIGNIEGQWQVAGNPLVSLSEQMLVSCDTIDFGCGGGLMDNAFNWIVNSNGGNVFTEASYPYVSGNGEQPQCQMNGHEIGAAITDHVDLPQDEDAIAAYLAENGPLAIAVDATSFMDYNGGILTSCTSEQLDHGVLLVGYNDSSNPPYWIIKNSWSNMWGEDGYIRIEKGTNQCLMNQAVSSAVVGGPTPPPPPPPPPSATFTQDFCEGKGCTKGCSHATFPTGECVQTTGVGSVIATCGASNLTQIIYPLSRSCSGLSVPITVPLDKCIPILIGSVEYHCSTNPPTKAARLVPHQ
Falcipain 2, sequence (Q8I6U4 244-484): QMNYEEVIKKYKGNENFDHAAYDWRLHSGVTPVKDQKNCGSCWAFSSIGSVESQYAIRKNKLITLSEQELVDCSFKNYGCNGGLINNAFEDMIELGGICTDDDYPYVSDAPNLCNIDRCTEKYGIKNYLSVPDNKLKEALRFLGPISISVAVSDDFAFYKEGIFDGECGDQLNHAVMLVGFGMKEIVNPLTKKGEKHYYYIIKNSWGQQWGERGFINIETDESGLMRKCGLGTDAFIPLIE
Cruzain, sequence (P25779 123-337): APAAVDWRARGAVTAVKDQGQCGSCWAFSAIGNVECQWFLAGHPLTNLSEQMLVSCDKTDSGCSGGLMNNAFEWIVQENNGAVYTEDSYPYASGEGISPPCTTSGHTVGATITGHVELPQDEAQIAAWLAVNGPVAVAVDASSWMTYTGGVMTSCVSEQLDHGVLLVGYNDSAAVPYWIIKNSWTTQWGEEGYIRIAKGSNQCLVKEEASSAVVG

Broadly, the Ki is a dissociation constant, usually derived from enzyme kinetics or from competition with a known ligand. In assay [1], `CC(C)C[C@@H](NC(=O)c1ccc([N+](=O)[O-])o1)C(=O)N[C@@H]1CCCN(S(=O)(=O)c2ccccn2)CC1=O` (stereo in doubt) [Example 35, 5-Nitro-furan-2-carboxylic acid {(S)-3-methyl-1-[3-oxo-1-(pyridine-2-sulfonyl)-azepan-4-ylcarbamoyl]-butyl}amide] returned a Ki of 96 nM. The same measure, in the same setting: with `CC(C)C[C@@H](NC(=O)c1cc2cc(OCCN3CCOCC3)ccc2o1)C(=O)N[C@@H]1CCCN(C(=O)Nc2ccccc2)CC1=O` [Example 5, 4-((S)-4-Methyl-2-{[5-(2-morpholino-4-yl-ethoxy)-benzofuran-2-carbonyl]amino}-pentanoylamino)-3-oxo-azepane-1-carboxylic acid phenylamide] the figure was 34 nM; with `COc1ccc(S(=O)(=O)N2CCCC(NC(=O)C(CC(C)C)NC(=O)c3ccc4c(c3)OCO4)C(=O)C2)cc1` (stereo in doubt) [Example 73, Benzo[1,3]dioxole-5-carboxylic acid {(S)-1-[1-(4-methoxy-benzenesulfonyl)-3-oxo-azepan-4-ylcarbamoyl]-3-methyl-butyl}-amide], 5.2 nM. With `O=C(N[C@@H](CC1CCCCC1)C(=O)N[C@H]1CCCN(S(=O)(=O)c2cccc[n+]2[O-])CC1=O)c1ccc(-c2cccc(C(F)(F)F)c2)o1` [Example 169, 5-(3-Trifluoromethyl-phenyl)-furan-2-carboxylic acid {(S)-2-cyclohexyl-1-[3-oxo-1-(1-oxy-pyridine-2-sulfonyl)-azepan-4-ylcarbamoyl]-ethyl}-amide], the affinity in assay [1], expressed as Ki, was 43 nM. `CC(C)C[C@@H](NC(=O)c1cc2cc(OCCN3CCCCC3)ccc2o1)C(=O)N[C@@H]1CCCN(S(=O)(=O)c2ccccc2)CC1=O` (stereo in doubt) [Example 9, 5-(2-Piperidin-1-yl-ethoxy)-benzofuran-2-carboxylic acid [(S)-1-(1-benzenesulfonyl-3-oxo-azepan-4-ylcarbamoyl)-3-methyl-butyl]amide] gave a Ki in assay [1] of 65 nM. `CC(C)C[C@@H](NC(=O)c1cc2cc(OCCN3CCNCC3)ccc2o1)C(=O)N[C@@H]1CCCN(S(=O)(=O)c2ccccn2)CC1=O` [Example 23, 5-(2-Piperizin-1-yl-ethoxy)-benzofuran-2-carboxylic acid {(S)-3-methyl-1-[3-oxo-1-(pyridine-2-sulfonyl)-azepan-4-ylcarbamoyl]-3-butyl}-amide] yielded a Ki in assay [1] of 14 nM. Turning to `COc1cccc2cc(C(=O)N[C@@H](CC(C)C)C(=O)N[C@H]3CCCN(S(=O)(=O)c4ccc(Cl)cc4)CC3=O)oc12` [Example 133, 7-Methoxy-benzofuran-2-carboxylic acid-{(S)-1-[1-(4-chloro-benzenesulfonyl)-3-oxo-azepan-4-ylcarbamoyl]-3-methyl-butyl}-amide], in assay [1], the Ki is 3.4 nM. On the same count and under the same terms, for `CC(C)C[C@@H](NC(=O)c1cc2cc(OCCN3CCOCC3)ccc2o1)C(=O)NC1CCCN(C(=O)Cc2cccc(-c3ccccn3)c2)CC1=O` (stereo partly drawn) [Example 3, 5-(2-morpholino-4-yl-ethoxy)-benzofuran-2-carboxylic acid ((S)-3-methyl-1-{3-oxo-1-[2-(3-pyridin-2-yl-phenyl)acetyl]-azepan-4-ylcarbamoyl}-butyl)amide] the value was 3 nM. With `Cc1c(C(=O)N[C@@H](CC(C)C)C(=O)N[C@H]2CCCN(C(=O)Nc3ccccc3F)CC2=O)oc2ccccc12` [Example 216, 3-Methyl-benzofuran-2-carboxylic acid {(S)-1-[1-(2-fluoro-phenylcarbamoyl)-3-oxo-azepan-4-ylcarbamoyl]-3-methyl-butyl}-amide], the Ki is 6.9 nM in assay [2] (read-out: Cruzain Ki) and 3.4 nM in assay [3] (Rhodazain Ki (nM)). In the same order, the values of `COc1ccc2oc(C(=O)N[C@@H](CC(C)C)C(=O)N[C@H]3CCN(S(=O)(=O)c4cccc[n+]4[O-])CCC3=O)c(C)c2c1` [Example 205, 5-Methoxy-3-methyl-benzofuran-2-carboxylic acid {(S)-3-methyl-1-[3-oxo-1-(1-oxy-pyridine-2-sulfonyl)-azepan-4-ylcarbamoyl]-butyl}-amide] are 5.2 nM and 3.2 nM. Turning to `COc1ccc2oc(C(=O)N[C@@H](CC(C)C)C(=O)N[C@H]3CCCN(S(=O)(=O)c4ccccc4F)CC3=O)cc2c1` [Example 92, 5-Methoxy-benzofuran-2-carboxylic acid-{(S)-1-[1-(2-fluoro-benzenesulfonyl)-3-oxo-azepan-4-ylcarbamoyl]-3-methyl-butyl}-amide], the Ki in assay [2] (read-out: Cruzain Ki) stood at 49 nM; in assay [3] (Rhodazain Ki (nM)), 6.3 nM. For the compound `CC(C)C[C@@H](NC(=O)c1cc2ccccc2o1)C(=O)N[C@@H]1CCCN(S(=O)(=O)c2cccc[n+]2[O-])CC1=O` [Example 49], the Ki in assay [2] (read-out: Cruzain Ki) was determined as 5.6 nM; in assay [3] (Rhodazain Ki (nM)) it was 3.1 nM. In the same order, the values of `Cc1c(C(=O)N[C@H](CC(C)C)C(=O)N[C@@H]2CCCN(S(=O)(=O)c3ccccn3)CC2=O)oc2ccccc12` (single isomer, unassigned) [Example 97] are 4 nM and 2.7 nM. The matching figures for `CC(C)C[C@@H](NC(=O)c1ccnc2ccccc12)C(=O)N[C@@H]1CCCN(S(=O)(=O)c2ccccn2)CC1=O` (stereo in doubt) [Example 26, Quinoline-4-carboxylic acid {(S)-3-methyl-1-[3-oxo-1-(pyridine-2-sulfonyl)-azepan-4-ylcarbamoyl]-butyl}amide]: 9.4 nM and 8.1 nM.

In assay [1], `COc1cccc(S(=O)(=O)N2CCC[C@H](NC(=O)[C@H](CC(C)C)NC(=O)c3cc4cccc(OC)c4o3)C(=O)C2)c1` [Example 138, 7-Methoxy-benzofuran-2-carboxylic acid-{(S)-1-[1-(3-methoxy-benzenesulfonyl)-3-oxo-azepan-4-ylcarbamoyl]-3-methyl-butyl}-amide] came in with a Ki of 5.6 nM. Consider `CC(C)C[C@@H](NC(=O)c1ccc(Br)o1)C(=O)N[C@@H]1CCCN(S(=O)(=O)c2ccccn2)CC1=O` (single isomer, unassigned) [Example 68], for which the Ki in assay [2] (read-out: Cruzain Ki) came out at 3.3 nM; in assay [3] (Rhodazain Ki (nM)) it was 0.93 nM. In the case of “5,6-Dimethoxy-benzofuran-2-carboxylic acid {(S)-3-methyl-1-[3-oxo-1-(1-oxy-pyridine-2-sulfonyl)-azepan-4-ylcarbamoyl]-butyl}amide [Example 48]”, the inhibitory constant (Ki) is 19 nM in assay [2] (read-out: Cruzain Ki) and 4.2 nM in assay [3] (read-out: Rhodazain Ki). Turning to `CC(C)C[C@H](NC(=O)c1cccc2ccccc12)C(=O)N[C@H]1CCCN(S(=O)(=O)c2ccccn2)CC1=O` [Example 184, Naphthalene-1-carboxylic acid {(S)-3-methyl-1-[3-oxo-1-(pyridine-2-sulfonyl)-azepan-4-ylcarbamoyl]-butyl}-amide], the Ki amounted to 2.1 nM in assay [2] (Cruzain Ki nM) and 1.8 nM in assay [3] (Rhodazain Ki (nM)). Consider `CC(C)C[C@H](NC(=O)c1cc2ccccc2n1C)C(=O)N[C@H]1CCCN(S(=O)(=O)c2nccs2)CC1=O` [Example 128, 1-Methyl-1H-indole-2-carboxylic acid{(S)-3-methyl-1-[3-oxo-1-(thiazole-2-sulfonyl)-azepan-4-ylcarbamoyl]-butyl}amide], for which the inhibitory constant (Ki) was found to be 17 nM in assay [2] (read-out: Cruzain Ki) and 8.2 nM in assay [3] (Rhodazain Ki (nM)). The matching figures for `COc1ccc(C(=O)N[C@H](CC(C)C)C(=O)N[C@@H]2CCCN(S(=O)(=O)c3ccccc3C#N)CC2=O)cc1OC` [Example 120]: 9.9 nM and 11 nM. The matching figures for `Cc1c(C(=O)N[C@H](CC(C)C)C(=O)NC2CCCN(S(=O)(=O)c3cccc[n+]3[O-])CC2=O)oc2ccccc12` (stereo partly drawn) [Example 57, 3-Methyl-benzofuran-2-carboxylic acid {(S)-3-methyl-1-[3-oxo-1-(1-oxy-pyridine-2-sulfonyl)-azepan-4-ylcarbamoyl]-butyl}amide]: 10 nM and 5.4 nM.

The record behind these values is patent US20030044399A1, “Method of treatment” (SmithKline Beecham Corporation, priority 1998, published 2003).
